# Reference: US20150337013A1, “NOVEL ANTIBACTERIAL AGENTS FOR THE TREATMENT OF GRAM POSITIVE INFECTIONS” (priority 2008, published 2015)
# Several values for one entry are separate records, joined by “and”; a condition that tells them apart may be missing. Equal entries are not always repeated. Where two headings read alike, the source gives them in different places.
# Experiments:
# [1] = tested on: Staphylococcus aureus SAU.399 (ATCC 43300), Methicillin and Oxacillin Resistant; format: cell-based; details: ATCC 43300
# Protocol: (§1) Compounds according to Formula I were tested for antimicrobial activity against a panel of organisms. Aerobic organisms, Staphylococcus aureus, Enterococcus faecalis and E. faecium, were tested by broth microdilution according to Clinical and Laboratory Standards Institute (CLSI) document M7-A7 (Clinical and Laboratory Standards Institute. Methods for Dilution Antimicrobial Susceptibility Tests for Bacteria that Grow Aerobically; Approved Standard—Seventh Edition. CLSI document M7-A7 [ISBN 1-56238-587-9]. Clinical and Laboratory Standards Institute, 940 West Valley Road, Suite 1400, Wayne, Pa. 19087-1898 USA, 2006) with modifications as described below. Mueller Hinton Broth (MHBc) was supplemented with 50 mg/L calcium (equivalent to human physiological levels of calcium) and assay plates were incubated 18-20 hours at 37° C. with aeration (200 rpm).
# (§2) In all cases the final concentration of dimethyl sulfoxide incubated with cells is less than or equal to 1%. For minimum inhibitory concentration (MIC) calculations, 2-fold dilutions of compounds were added to wells of a microtiter plate containing 5×10^5 bacteria in a final volume of 100 μL of media. Following incubation, (18-20 hours at 37° C. with aeration at 200 rpm) growth was confirmed visually by placing plates over a viewing apparatus (stand with a mirror underneath) and then the optical density (OD600) was measured using a SpectraMax 340PC^384 plate reader. Growth was defined as turbidity that could be detected with the naked eye or achieving minimum OD600of 0.1. MIC values (in μg/mL) were defined as the lowest concentration producing no visible turbidity.
# [2] = tested on: Enterococcus faecium EFM.14 (ATCC 6569); format: cell-based
# Protocol: as §1, §2
# [3] = tested on: Enterococcus faecalis EFS.312, Daptomycin resistant mutant (EFA); format: cell-based; details: MHBc with 50 mg/L calcium, 18-20 hours at 37° C.
# Protocol: as §1, §2
# [4] = tested on: Staphylococcus aureus SAU.278, Daptomycin resistant mutant (D10); format: cell-based; details: MHBc with 50 mg/L calcium, 18-20 hours at 37° C.
# Protocol: as §1, §2
# [5] = tested on: Enterococcus faecium EFM.384, Daptomycin resistant mutant (14-A); format: cell-based; details: MHBc with 50 mg/L calcium, 18-20 hours at 37° C.
# Protocol: as §1, §2
# [6] = tested on: Enterococcus faecalis EFS.201 (ATCC 49452); format: cell-based
# Protocol: as §1, §2
# [7] = MHBc with 50 mg/L calcium, 18-20 hours at 37° C.
SMILES,Sa399 MIC [1] [µg/mL],Efm14 MIC ([2]; ATCC 6569) [µg/mL],Efs312 MIC [3],Sa278 MIC [4],Efm384 MIC [5],C. diff MIC90 (Clostridium difficile) [µg/mL],Efs201 MIC ([6]; ATCC 49452) [µg/mL],"Efm14 MIC [2, 7] [µg/mL]","Efs201 MIC [6, 7] [µg/mL]"
"CCCC1CCC(c2ccc(C(=O)N[C@@H](Cc3c[nH]c4ccccc34)C(=O)N[C@H](CC(N)=O)C(=O)N[C@@H](CC(=O)O)C(=O)N[C@@H]3C(=O)NCC(=O)N[C@@H](CCCN)C(=O)N[C@@H](CC(=O)O)C(=O)N[C@H](C)C(=O)N[C@@H](CC(=O)O)C(=O)NCC(=O)N[C@H](CO)C(=O)N[C@@H]([C@H](C)CC(=O)O)C(=O)N[C@@H](CC(=O)c4ccccc4N)C(=O)O[C@@H]3C)cc2)CC1 (single isomer, unassigned) [53 isomer I]",0.125,0.25,2 µg/mL,0.25 µg/mL and 0.5 µg/mL,2 µg/mL and 1 µg/mL,1,–,–,–
"CCCCCCC1CCC(c2ccc(C(=O)N[C@@H](Cc3c[nH]c4ccccc34)C(=O)N[C@H](CC(N)=O)C(=O)N[C@@H](CC(=O)O)C(=O)N[C@@H]3C(=O)NCC(=O)N[C@@H](CCCN)C(=O)N[C@@H](CC(=O)O)C(=O)N[C@H](C)C(=O)N[C@@H](CC(=O)O)C(=O)NCC(=O)N[C@H](CO)C(=O)N[C@@H]([C@H](C)CC(=O)O)C(=O)N[C@@H](CC(=O)c4ccccc4N)C(=O)O[C@@H]3C)cc2)CC1 (single isomer, unassigned) [54 isomer I]",–,–,–,–,–,4,–,–,–
CCCCCCCC/C=C/CC(=O)N[C@@H](Cc1c[nH]c2ccccc12)C(=O)N[C@H](CC(N)=O)C(=O)N[C@@H](CC(=O)O)C(=O)N[C@@H]1C(=O)NCC(=O)N[C@@H](CCCN)C(=O)N[C@@H](CC(=O)O)C(=O)N[C@H](C)C(=O)N[C@@H](CC(=O)O)C(=O)NCC(=O)N[C@H](CO)C(=O)N[C@@H]([C@H](C)CC(=O)O)C(=O)N[C@@H](CC(=O)c2ccccc2N)C(=O)O[C@@H]1C [Compound 4],–,–,32 µg/mL and 16 µg/mL,–,8 µg/mL and 4 µg/mL,–,–,–,–
CCCCCCC(CCCC)C(=O)N[C@@H](Cc1c[nH]c2ccccc12)C(=O)N[C@H](CC(N)=O)C(=O)N[C@@H](CC(=O)O)C(=O)N[C@@H]1C(=O)NCC(=O)N[C@@H](CCCN)C(=O)N[C@@H](CC(=O)O)C(=O)N[C@H](C)C(=O)N[C@@H](CC(=O)O)C(=O)NCC(=O)N[C@H](CO)C(=O)N[C@@H]([C@H](C)CC(=O)O)C(=O)N[C@@H](CC(=O)c2ccccc2N)C(=O)O[C@@H]1C (some centres unmarked) [Compound 8],–,–,>32 µg/mL,–,32 µg/mL and >32 µg/mL,8,–,–,–
CCCCCCC1CCC(C(=O)N[C@@H](Cc2c[nH]c3ccccc23)C(=O)N[C@H](CC(N)=O)C(=O)N[C@@H](CC(=O)O)C(=O)N[C@@H]2C(=O)NCC(=O)N[C@@H](CCCN)C(=O)N[C@@H](CC(=O)O)C(=O)N[C@H](C)C(=O)N[C@@H](CC(=O)O)C(=O)NCC(=O)N[C@H](CO)C(=O)N[C@@H]([C@H](C)CC(=O)O)C(=O)N[C@@H](CC(=O)c3ccccc3N)C(=O)O[C@@H]2C)CC1 (some centres unmarked) [Compound 18],1,2,32 µg/mL and 16 µg/mL,4 µg/mL and 2 µg/mL,8 µg/mL,0.5,–,–,–
CCCCCCCC1CCC(C(=O)N[C@@H](Cc2c[nH]c3ccccc23)C(=O)N[C@H](CC(N)=O)C(=O)N[C@@H](CC(=O)O)C(=O)N[C@@H]2C(=O)NCC(=O)N[C@@H](CCCN)C(=O)N[C@@H](CC(=O)O)C(=O)N[C@H](C)C(=O)N[C@@H](CC(=O)O)C(=O)NCC(=O)N[C@H](CO)C(=O)N[C@@H]([C@H](C)CC(=O)O)C(=O)N[C@@H](CC(=O)c3ccccc3N)C(=O)O[C@@H]2C)CC1 (some centres unmarked) [Compound 19],–,–,–,–,–,0.250,–,–,–
"CC(C)c1ccc(CCCC(=O)N[C@@H](Cc2c[nH]c3ccccc23)C(=O)N[C@H](CC(N)=O)C(=O)N[C@@H](CC(=O)O)C(=O)N[C@@H]2C(=O)NCC(=O)N[C@@H](CCCN)C(=O)N[C@@H](CC(=O)O)C(=O)N[C@H](C)C(=O)N[C@@H](CC(=O)O)C(=O)NCC(=O)N[C@H](CO)C(=O)N[C@@H]([C@H](C)CC(=O)O)C(=O)N[C@@H](CC(=O)c3ccccc3N)C(=O)O[C@@H]2C)cc1 [Compound 30, N-[4-(4-isopropylphenyl)butanoyl]-L-tryptophyl-D-asparaginyl-L-α-aspartyl-L-threonylglycyl-L-ornithyl-L-α-aspartyl-D-alanyl-L-α-aspartylglycyl-D-seryl-(3R)-3-methyl-L-α-glutamyl-(αS)-α,2-diamino-γ-oxobenzenebutanoic acid (13→4)-lactone]",–,–,>32 µg/mL,32 µg/mL,>32 µg/mL,8,8,–,–
CCCCCCc1ccc(C(=O)N[C@@H](Cc2c[nH]c3ccccc23)C(=O)N[C@H](CC(N)=O)C(=O)N[C@@H](CC(=O)O)C(=O)N[C@@H]2C(=O)NCC(=O)N[C@@H](CCCN)C(=O)N[C@@H](CC(=O)O)C(=O)N[C@H](C)C(=O)N[C@@H](CC(=O)O)C(=O)NCC(=O)N[C@H](CO)C(=O)N[C@@H]([C@H](C)CC(=O)O)C(=O)N[C@@H](CC(=O)c3ccccc3N)C(=O)O[C@@H]2C)cc1 [Compound 32],–,–,>32 µg/mL and 32 µg/mL,–,–,–,–,–,–
C[C@H](CC(=O)O)[C@@H]1NC(=O)[C@@H](CO)NC(=O)CNC(=O)[C@H](CC(=O)O)NC(=O)[C@@H](C)NC(=O)[C@H](CC(=O)O)NC(=O)[C@H](CCCN)NC(=O)CNC(=O)[C@@H](NC(=O)[C@H](CC(=O)O)NC(=O)[C@@H](CC(N)=O)NC(=O)[C@H](Cc2c[nH]c3ccccc23)NC(=O)CCCCCc2ccccc2)[C@@H](C)OC(=O)[C@H](CC(=O)c2ccccc2N)NC1=O [Compound 46],–,>32,>32 µg/mL,>32 µg/mL,>32 µg/mL,16,>32,–,–
CCCCCCSc1ccc(-c2csc(C(=O)N[C@@H](Cc3c[nH]c4ccccc34)C(=O)N[C@H](CC(N)=O)C(=O)N[C@@H](CC(=O)O)C(=O)N[C@@H]3C(=O)NCC(=O)N[C@@H](CCCN)C(=O)N[C@@H](CC(=O)O)C(=O)N[C@H](C)C(=O)N[C@@H](CC(=O)O)C(=O)NCC(=O)N[C@H](CO)C(=O)N[C@@H]([C@H](C)CC(=O)O)C(=O)N[C@@H](CC(=O)c4ccccc4N)C(=O)O[C@@H]3C)c2)cc1 [Compound 57],–,–,–,2 µg/mL and 4 µg/mL,–,8,–,–,–
"CCCCCCOc1ccc(-c2csc(C(=O)N[C@@H](Cc3c[nH]c4ccccc34)C(=O)N[C@H](CC(N)=O)C(=O)N[C@@H](CC(=O)O)C(=O)N[C@@H]3C(=O)NCC(=O)N[C@@H](CCCN)C(=O)N[C@@H](CC(=O)O)C(=O)N[C@H](C)C(=O)N[C@@H](CC(=O)O)C(=O)NCC(=O)N[C@H](CO)C(=O)N[C@@H]([C@H](C)CC(=O)O)C(=O)N[C@@H](CC(=O)c4ccccc4N)C(=O)O[C@@H]3C)c2)cc1 [Compound 58, N-[4-(4-(hexyloxy)phenyl)thiophene-2-carbonyl]-L-tryptophyl-D-asparaginyl-L-α-aspartyl-L-threonylglycyl-L-ornithyl-L-α-aspartyl-D-alanyl-L-α-aspartylglycyl-D-seryl-(3R)-3-methyl-L-α-glutamyl-(αS)-α,2-diamino-γ-oxobenzenebutanoic acid (13→4)-lactone]",–,–,–,0.5 µg/mL and 1 µg/mL,–,4,–,–,–
CCCCCCOc1ccc(-c2ccc(C(=O)N[C@@H](Cc3c[nH]c4ccccc34)C(=O)N[C@H](CC(N)=O)C(=O)N[C@@H](CC(=O)O)C(=O)N[C@@H]3C(=O)NCC(=O)N[C@@H](CCCN)C(=O)N[C@@H](CC(=O)O)C(=O)N[C@H](C)C(=O)N[C@@H](CC(=O)O)C(=O)NCC(=O)N[C@H](CO)C(=O)N[C@@H]([C@H](C)CC(=O)O)C(=O)N[C@@H](CC(=O)c4ccccc4N)C(=O)O[C@@H]3C)cc2)cc1 [Compound 62],–,–,2 µg/mL and 4 µg/mL,0.5 µg/mL,1 µg/mL,2,–,0.5,0.25
